The source of these data is US10138260B2, “Compounds of phosphinanes and azaphosphinanes, a process for their preparation and pharmaceutical compositions containing them” (LES LABORATOIRES SERVIER, priority 2016, dated 2018).

The term inhibition denotes the change of the read-out against control, counted positive when it falls. A high value points to a strong effect.

This assay deals with T1, TAFIa (Homo sapiens, UniProt Q96IY4).
T1 sequence (Q96IY4 115-423): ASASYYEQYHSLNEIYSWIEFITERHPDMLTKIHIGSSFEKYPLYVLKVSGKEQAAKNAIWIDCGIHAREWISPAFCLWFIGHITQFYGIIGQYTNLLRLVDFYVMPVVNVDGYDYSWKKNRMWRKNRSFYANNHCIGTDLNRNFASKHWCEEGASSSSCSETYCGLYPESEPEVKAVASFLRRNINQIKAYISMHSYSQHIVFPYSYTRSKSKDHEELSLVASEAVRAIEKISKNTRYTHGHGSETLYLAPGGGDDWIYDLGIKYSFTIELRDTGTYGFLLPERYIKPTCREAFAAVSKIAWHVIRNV
The experiment in a line: Inhibition of TAFIa (hippuryl-Arg test). The format is biochemical. Particulars: TAFIa 2 nM, hippuryl-arginine 5 mM, 45 minutes, relative to control containing the carrier; for inhibition at 0.01 µM: compound at 10 nM; for inhibition at 0.02 µM: compound at 20 nM. The protocol:
Human TAFI (4 nM) is incubated with human thrombin (10 nM) and human thrombomodulin (5 nM) in the presence of calcium (10 mM). After incubation for 20 minutes, the activation reaction is stopped by addition of PPACK (1 μM final), an irreversible thrombin inhibitor.
The reactions take place in Hepes buffer (25 mM Hepes, 137 mM NaCl, 3.5 mM KCl)+0.1% bovine albumin, pH 7.4 at 28° C. and with stirring.
The test compound is added to the solution of TAFIa (2 nM) and incubated for 45 minutes in the presence of hippuryl-arginine (5 mM). The reaction is stopped by addition of hydrochloric acid (1M) neutralised subsequently with sodium hydroxide (1M), and then the mixture is buffered with disodium hydroxyphosphate (1M pH 7.4). […] The reaction mixture is stirred (vortex) and then centrifuged. The supernatant is transferred to a 96-well microplate, and the absorbance is measured using a spectrophotometer at 405 nm (Spectramax plus, Molecular Devices).
The OD value of a well containing the reagents without TAFI is subtracted from all the OD values measured. The percentage inhibition of TAFIa at a given concentration of the test compound is determined by means of the following formula: % inhibition=100−[(OD compound×100)/OD carrier]
The compounds are evaluated at 10 nM and 20 nM under the experimental conditions described above and the results are expressed as the percentage inhibition relative to a control containing the carrier in the absence of compound.

As to `NCCCC[C@@]1(C(=O)O)CN(Cc2ccc(Cl)cc2-c2ccc(Cl)cc2)CCP1(=O)O` [Example 195, (3S)-3-(4-AMINOBUTYL)-1-[[4-CHLORO-2-(4-CHLOROPHENYL)PHENYL]METHYL]-4-HYDROXY-4-OXO-1,4-AZAPHOSPHINANE-3-CARBOXYLIC ACID], the inhibition at 0.01 µM amounted to 74% and the inhibition at 0.02 µM was 87%.
For `Cc1ccc(-c2cc(F)ccc2CN2CCP(=O)(O)[C@](CCCCN)(C(=O)O)C2)cc1` [Example 180, (3S)-3-(4-AMINOBUTYL)-1-[[4-FLUORO-2-(4-METHYLPHENYL)PHENYL]-METHYL]-4-HYDROXY-4-OXO-1,4-AZAPHOSPHINANE-3-CARBOXYLIC ACID], testing at 0.01 µM gave an inhibition of 54% and the inhibition at 0.02 µM amounted to 73%.
On the same counts, the results for `NCCCC[C@@]1(C(=O)O)CN(Cc2ccc(F)cc2-c2ccc(O)cc2)CCP1(=O)O` [Example 211, (3S)-3-(4-AMINOBUTYL)-1-[[4-FLUORO-2-(4-HYDROXYPHENYL)PHENYL]-METHYL]-4-HYDROXY-4-OXO-1,4-AZAPHOSPHINANE-3-CARBOXYLIC ACID] are 85% and 95%.
For `COc1cc(-c2cc(F)ccc2CN2CCP(=O)(O)[C@](CCCCN)(C(=O)O)C2)ccn1` [Example 221, (3S)-3-(4-AMINOBUTYL)-1-[[4-FLUORO-2-(2-METHOXYPYRIDIN-4-YL)PHENYL]-METHYL]-4-HYDROXY-4-OXO-1,4-AZAPHOSPHINANE-3-CARBOXYLIC ACID] the same measures were 75% and 88%.
As to `NCCCCC1(C(=O)O)CN(Cc2ccccc2-c2cc(Cl)ccc2Cl)CCP1(=O)O` (stereo not shown) [Example 48, 3-(4-AMINOBUTYL)-1-[[2-(2,5-DICHLOROPHENYL)PHENYL]METHYL]-4-HYDROXY-4-OXO-1,4-AZAPHOSPHINANE-3-CARBOXYLIC ACID], at 0.01 µM the inhibition was 45% and testing at 0.02 µM gave an inhibition of 54%.
For `NCCCC[C@@]1(C(=O)O)CN(Cc2ccccc2-c2ccc(O)nc2)CCP1(=O)O` [Example 240, (3S)-3-(4-AMINOBUTYL)-4-HYDROXY-1-[[2-(6-HYDROXYPYRIDIN-3-YL)PHENYL]METHYL]-4-OXO-1,4-AZAPHOSPHINANE-3-CARBOXYLIC ACID], at 0.01 µM the inhibition was 66% and the inhibition at 0.02 µM came out at 80%.
Turning to `NCCCCC1(C(=O)O)CN(Cc2ccccc2-c2ccc(=O)[nH]c2)CCP1(=O)O` (stereo not shown) [Example 166, 3-(4-AMINOBUTYL)-4-HYDROXY-4-OXO-1-[[2-(6-OXO-1H-PYRIDIN-3-YL)PHENYL]METHYL]-1,4-AZAPHOSPHINANE-3-CARBOXYLIC ACID], the inhibition at 0.01 µM is 66% and the inhibition at 0.02 µM came out at 93%.
`NCCCC[C@@]1(C(=O)O)CN(Cc2ccc(F)cc2-c2ccncc2)CCP1(=O)O` [Example 192, (3S)-3-(4-AMINOBUTYL)-1-[(4-FLUORO-2-PYRIDIN-4-YLPHENYL)METHYL]-4-HYDROXY-4-OXO-1,4-AZAPHOSPHINANE-3-CARBOXYLIC ACID] yielded an inhibition at 0.01 µM of 77% and an inhibition at 0.02 µM of 91%.
For `NCCCC[C@@]1(C(=O)O)CN(Cc2ccccc2-c2ccncc2)CCP1(=O)O` [Example 252, (3S)-3-(4-AMINOBUTYL)-4-HYDROXY-4-OXO-1-[(2-PYRIDIN-4-YLPHENYL)-METHYL]-1,4-AZAPHOSPHINANE-3-CARBOXYLIC ACID] the same measures were 76% and 90%.
Take `NCCCCC1(C(=O)O)CN(Cc2ccccc2-c2cnc3ccccn23)CCP1(=O)O` (stereo not shown) [Example 167, 3-(4-AMINOBUTYL)-4-HYDROXY-1-[(2-IMIDAZO[1,2-A]PYRIDIN-3-YLPHENYL)-METHYL]-4-OXO-1,4-AZAPHOSPHINANE-3-CARBOXYLIC ACID]: 0.01 µM produced 61% inhibition and testing at 0.02 µM gave an inhibition of 67%.
For `COc1ccc(-c2cc(O)ccc2CN2CCP(=O)(O)[C@](CCCCN)(C(=O)O)C2)cc1OC` [Example 229, (3S)-3-(4-AMINOBUTYL)-1-[[2-(3,4-DIMETHOXYPHENYL)-4-HYDROXYPHENYL]-METHYL]-4-HYDROXY-4-OXO-1,4-AZAPHOSPHINANE-3-CARBOXYLIC ACID], the inhibition at 0.01 µM worked out at 81% and the inhibition at 0.02 µM is 89%.
For the compound `NCCCC[C@@]1(C(=O)O)CN(Cc2ccc(F)cc2-c2ccc(F)cc2)CCP1(=O)O` [Example 189, (3S)-3-(4-AMINOBUTYL)-1-[[4-FLUORO-2-(4-FLUOROPHENYL)PHENYL]METHYL]-4-HYDROXY-4-OXO-1,4-AZAPHOSPHINANE-3-CARBOXYLIC ACID], 0.01 µM produced 71% inhibition and the inhibition at 0.02 µM was determined as 78%.
As to `NCCCC[C@@]1(C(=O)O)CN(Cc2ccc(F)cc2-c2ccc(Cl)cc2)CCP1(=O)O` [Example 198, (3S)-3-(4-AMINOBUTYL)-1-[[2-(4-CHLOROPHENYL)-4-FLUOROPHENYL]METHYL]-4-HYDROXY-4-OXO-1,4-AZAPHOSPHINANE-3-CARBOXYLIC ACID], the inhibition at 0.01 µM amounted to 72% and testing at 0.02 µM gave an inhibition of 91%.
Compound `NCCCCC1(C(=O)O)CN(Cc2ccccc2-c2cccc(-c3ccccc3)c2)CCP1(=O)O` (stereo not shown) [Example 49, 3-(4-AMINOBUTYL)-4-HYDROXY-4-OXO-1-[[2-(3-PHENYLPHENYL)PHENYL]-METHYL]-1,4-AZAPHOSPHINANE-3-CARBOXYLIC ACID] displayed an inhibition at 0.01 µM of 60% and an inhibition at 0.02 µM of 73%.
The compound `NCCCC[C@@]1(C(=O)O)CN(Cc2ccc(F)cc2-c2cc3ccccc3s2)CCP1(=O)O` [Example 216, (3S)-3-(4-AMINOBUTYL)-1-[[2-(1-BENZOTHIOPHEN-2-YL)-4-FLUOROPHENYL]-METHYL]-4-HYDROXY-4-OXO-1,4-AZAPHOSPHINANE-3-CARBOXYLIC ACID] had an inhibition at 0.01 µM of 71% and an inhibition at 0.02 µM of 85%.
For `COc1ccc(-c2cc(O)ccc2CN2CCP(=O)(O)[C@](CCCCN)(C(=O)O)C2)cn1` [Example 242, (3S)-3-(4-AMINOBUTYL)-4-HYDROXY-1-[[4-HYDROXY-2-(6-METHOXYPYRIDIN-3-YL)PHENYL]METHYL]-4-OXO-1,4-AZAPHOSPHINANE-3-CARBOXYLIC ACID] the same measures were 75% and 88%.
For `Cn1cc(-c2cc(F)ccc2CN2CCP(=O)(O)[C@](CCCCN)(C(=O)O)C2)cn1` [Example 212, (3S)-3-(4-AMINOBUTYL)-1-[4-FLUORO-2-(1-METHYL-1H-PYRAZOL-4-YL)BENZYL]-4-HYDROXY-4-OXO-1,4-AZAPHOSPHINANE-3-CARBOXYLIC ACID] the same measures were 62% and 86%.
For `NCCCC[C@@]1(C(=O)O)CN(Cc2ccccc2-c2cc[nH]c(=O)c2)CCP1(=O)O` [Example 204, (3S)-3-(4-AMINOBUTYL)-4-HYDROXY-4-OXO-1-[[2-(2-OXO-1H-PYRIDIN-4-YL)PHENYL]METHYL]-1,4-AZAPHOSPHINANE-3-CARBOXYLIC ACID], testing at 0.01 µM gave an inhibition of 70% and the inhibition at 0.02 µM came to 86%.
For `COc1ccc(-c2cc(F)ccc2CN2CCP(=O)(O)[C@](CCCCN)(C(=O)O)C2)cc1OC` [Example 179, (3S)-3-(4-AMINOBUTYL)-1-[[2-(3,4-DIMETHOXYPHENYL)-4-FLUOROPHENYL]-METHYL]-4-HYDROXY-4-OXO-1,4-AZAPHOSPHINANE-3-CARBOXYLIC ACID] the same measures were 74% and 83%.
For `COc1ccc(-c2ccccc2CN2CCP(=O)(O)[C@](CCCCN)(C(=O)O)C2)cc1OC` [Example 248, (3S)-3-(4-AMINOBUTYL)-1-[[2-(3,4-DIMETHOXYPHENYL)PHENYL]METHYL]-4-HYDROXY-4-OXO-1,4-AZAPHOSPHINANE-3-CARBOXYLIC ACID] the same measures were 87% and 95%.
The compound `NCCCC[C@@]1(C(=O)O)CN(Cc2ccccc2-c2cccc3cnccc23)CCP1(=O)O` [Example 214, (3S)-3-(4-AMINOBUTYL)-4-HYDROXY-1-[(2-ISOQUINOLIN-5-YLPHENYL)-METHYL]-4-OXO-1,4-AZAPHOSPHINANE-3-CARBOXYLIC ACID] came in with an inhibition at 0.01 µM of 79% and an inhibition at 0.02 µM of 91%.
For `COc1cccc(-c2cc(F)ccc2CN2CCP(=O)(O)[C@](CCCCN)(C(=O)O)C2)n1` [Example 244, (3S)-3-(4-AMINOBUTYL)-1-[[4-FLUORO-2-(6-METHOXYPYRIDIN-2-YL)PHENYL]-METHYL]-4-HYDROXY-4-OXO-1,4-AZAPHOSPHINANE-3-CARBOXYLIC ACID] the same measures were 49% and 68%.
For `NCCCC[C@@]1(C(=O)O)CN(Cc2ccc(F)cc2-c2cccc(O)c2)CCP1(=O)O` [Example 238, (3S)-3-(4-AMINOBUTYL)-1-[[4-FLUORO-2-(3-HYDROXYPHENYL)PHENYL]-METHYL]-4-HYDROXY-4-OXO-1,4-AZAPHOSPHINANE-3-CARBOXYLIC ACID] the same measures were 70% and 87%.
